Counter-ions that a name gives are not always drawn. Like-named read-outs stand apart in the source and are kept apart here.
Biological target: SMYD3 (Homo sapiens (Human), UniProt Q9H7B4)
Assay: SMYD3 biochemical assay (SMYD3 enzyme assay on MEKK2 protein substrate, 3H-SAM scintillation proximity assay)
How it was run: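 Detection used scintillation proximity beads to capture ³H-methylated GST-MEKK2 after quench with 100 uM final cold SAM. The reaction was started by SAM/MEKK2 addition after a 30 min RT compound–enzyme preincubation. Enzyme was tag-free full-length human SMYD3 from E. coli, in buffer of 25 mM Tris-Cl pH 8.0, 1 mM TCEP, 0.005% BSG, 0.005% Tween 20.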

[1] = Table 1A, average of n = 1 to n = 50, read-out: SMYD3 Biochem IC50
[2] = read-out: SMYD3 Biochem IC50 (μM)*

Sequence of SMYD3 (Q9H7B4 whole entry): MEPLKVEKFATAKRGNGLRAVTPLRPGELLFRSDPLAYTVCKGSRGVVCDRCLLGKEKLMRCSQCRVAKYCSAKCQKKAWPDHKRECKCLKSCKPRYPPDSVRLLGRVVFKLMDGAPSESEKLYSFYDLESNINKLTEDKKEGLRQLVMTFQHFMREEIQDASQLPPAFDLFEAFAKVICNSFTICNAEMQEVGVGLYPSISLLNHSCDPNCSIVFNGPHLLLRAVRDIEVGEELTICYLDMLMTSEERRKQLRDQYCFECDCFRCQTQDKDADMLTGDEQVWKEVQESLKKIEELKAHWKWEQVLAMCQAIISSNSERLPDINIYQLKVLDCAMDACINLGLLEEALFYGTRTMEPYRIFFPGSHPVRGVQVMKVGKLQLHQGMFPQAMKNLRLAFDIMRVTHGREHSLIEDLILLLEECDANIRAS

SMILES	IC50 (read-out: SMYD3 Biochem IC50) [µM]	further results
C[C@@H]1C[C@H](NC(=O)c2ccccc2)CCN1S(=O)(=O)CCCN (stereo in doubt) [compound 564, (±)-cis-N-(1-((3-aminopropyl)sulfonyl)-2-methylpiperidin-4-yl)benzamide]	–	IC50 [1]: > 10 µM
CC(NC(=O)c1ccc2[nH]c(=O)oc2c1)C1CCN(C(=O)[C@H](C)N)CC1 (stereo partly drawn) [Cpd. No. 94, N-(1-(1-((S)-2-aminopropanoyl)piperidin-4-yl)ethyl)-2-oxo-2,3-dihydrobenzo[d]oxazole-6-carboxamide Hydrochloride]	–	IC50 [2]: 3.94 µM
CC(NC(=O)[C@H]1C[C@H](O)CN1)C1CCN(C(=O)[C@H](C)N)CC1 (stereo partly drawn) [compound 433, (2R,4S)-N-(1-(1-(L-alanyl)piperidin-4-yl)ethyl)-4-hydroxypyrrolidine-2-carboxamide]	45.6	–
C[C@H](N)C(=O)N1CCC(C)(CNC(=O)c2ccc3c(c2)CC(=O)N3)CC1 [compound 176, N-((1-(L-alanyl)-4-methylpiperidin-4-yl)methyl)-2-oxoindoline-5-carboxamide]	–	IC50 [2]: 3.52 µM
N[C@H]1CC[C@H](NC(=O)c2cnc3c(c2)CC(=O)N3)CC1 [compound 47, N-((1r,4r)-4-aminocyclohexyl)-2-oxo-2,3-dihydro-1H-pyrrolo[2,3-b]pyridine-5-carboxamide]	–	IC50 [2]: 11.9 µM
Cc1nnc(C(=O)N[C@H]2CC[C@H](NC(=O)CCN)CC2)[nH]1 [compound 543, N-((1r,4r)-4-(3-aminopropanamido)cyclohexyl)-5-methyl-4H-1,2,4-triazole-3-carboxamide]	–	IC50 [1]: > 50 µM
NCCC(=O)N[C@H]1CC[C@H](NC(=O)c2c[nH]c3ccccc23)CC1 [compound 391, N-((1r,4r)-4-(3-aminopropanamido)cyclohexyl)-1H-indole-3-carboxamide]	> 100	–
CCc1nc(C(=O)N[C@H]2CC[C@H](N)CC2)co1 [compound 16, N-((1r,4r)-4-aminocyclohexyl)-2-ethyloxazole-4-carboxamide]	–	IC50 [2]: 128 µM
COc1ccc2cc(C(C)C(=O)N[C@H]3CC[C@H](N)CC3)ccc2c1 (stereo partly drawn) [compound 170, N-((1r,4r)-4-aminocyclohexyl)-2-(6-methoxynaphthalen-2-yl)propanamide]	–	IC50 [2]: 76.4 µM
C[C@H]1C[C@@H](NC(=O)c2ccccc2)CCN1S(=O)(=O)CCCN (stereo in doubt) [compound 570, (±)-cis-N-(1-((3-aminopropyl)sulfonyl)-2-methylpiperidin-4-yl)benzamide]	–	IC50 [1]: > 10 µM
NCCC(=O)N[C@H]1CC[C@H](NC(=O)c2nnc[nH]2)CC1 [compound 525, N-((1r,4r)-4-(3-aminopropanamido)cyclohexyl)-4H-1,2,4-triazole-3-carboxamide]	–	IC50 [1]: > 50 µM
NCCC(=O)N1CCC(NC(=O)c2nnc[nH]2)CC1 [compound 556, N-(1-(3-aminopropanoyl)piperidin-4-yl)-4H-1,2,4-triazole-3-carboxamide]	–	IC50 [1]: > 50 µM
N[C@H]1CC[C@H](NC(=O)c2cncc(F)c2)CC1 [compound 159, N-((1r,4r)-4-aminocyclohexyl)-5-fluoronicotinamide]	–	IC50 [2]: > 100 µM
COc1cc(C(=O)NC(C)C2CCN(C(=O)[C@H](C)N)CC2)cc2c1OCC(=O)N2 (stereo partly drawn) [compound 98, N-(1-(1-(L-alanyl)piperidin-4-yl)ethyl)-8-methoxy-3-oxo-3,4-dihydro-2H-benzo[b][1,4]oxazine-6-carboxamide]	–	IC50 [2]: 151 µM
CC1Oc2ccc(C(=O)NC(C)C3CCN(C(=O)[C@H](C)N)CC3)cc2NC1=O (stereo partly drawn) [compound 450, N-(1-(1-(L-alanyl)piperidin-4-yl)ethyl)-2-methyl-3-oxo-3,4-dihydro-2H-benzo[b][1,4]oxazine-6-carboxamide]	25.4	–
N[C@H]1CC[C@H](NC(=O)Cc2c[nH]c3ccccc23)CC1 [compound 168, N-((1r,4r)-4-aminocyclohexyl)-2-(1H-indol-3-yl)acetamide]	–	IC50 [2]: > 100 µM
CC(NC(=O)Cc1cccnc1)C1CCN(C(=O)[C@H](C)N)CC1 (stereo partly drawn) [compound 314, N-(1-(1-(L-alanyl)piperidin-4-yl)ethyl)-2-(pyridin-3-yl)acetamide]	> 100	–
Cc1cc(C)c(C(=O)N[C@H]2CC[C@H](NC(=O)CCN)CC2)c(=O)[nH]1 [compound 402, N-((1r,4r)-4-(3-aminopropanamido)cyclohexyl)-4,6-dimethyl-2-oxo-1,2-dihydropyridine-3-carboxamide]	> 100	–
CCc1ccc(C(=O)N[C@H]2CC[C@H](N)CC2)cc1 [compound 18, N-((1r,4r)-4-aminocyclohexyl)-4-ethylbenzamide]	–	IC50 [2]: 125 µM
CC(NC(=O)c1cn2ncccc2n1)C1CCN(C(=O)[C@H](C)N)CC1 (stereo partly drawn) [compound 445, N-(1-(1-(L-alanyl)piperidin-4-yl)ethyl)imidazo[1,2-b]pyridazine-2-carboxamide]	> 100	–
Cc1cccc(Cn2nc(C(C)(C)C)cc2C(=O)NC(C)C2CCN(C(=O)[C@H](C)N)CC2)c1 (stereo partly drawn) [compound 299, N-(1-(1-(L-alanyl)piperidin-4-yl)ethyl)-3-(tert-butyl)-1-(3-methylbenzyl)-1H-pyrazole-5-carboxamide]	> 100	–
NCCC(=O)N[C@H]1CC[C@H](NC(=O)[C@H]2CC[C@H](N)CC2)CC1 [compound 303, (1r,4r)-4-amino-N-((1r,4r)-4-(3-aminopropanamido)cyclohexyl)cyclohexane-1-carboxamide]	> 100	–
CC(NC(=O)c1cc[n+]([O-])cc1)C1CCN(C(=O)[C@H](C)N)CC1 (stereo partly drawn) [compound 209, 4-((1-(1-(L-alanyl)piperidin-4-yl)ethyl)carbamoyl)pyridine 1-oxide]	> 100	–
CC(CN1CCCC1)C(=O)NC(c1ccccc1)C1CCNCC1 (stereo not drawn) [compound 109, 2-methyl-N-(phenyl(piperidin-4-yl)methyl)-3-(pyrrolidin-1-yl)propanamide]	–	IC50 [2]: 79 µM
Cc1cccc(Cn2nc(C(C)(C)C)cc2C(=O)N[C@H]2CC[C@H](NC(=O)CCN)CC2)c1 [compound 340, N-((1r,4r)-4-(3-aminopropanamido)cyclohexyl)-3-(tert-butyl)-1-(3-methylbenzyl)-1H-pyrazole-5-carboxamide]	> 100	–

More lines, main results first:

IC50 (read-out: SMYD3 Biochem IC50) [µM]	SMILES	further results
> 100	NCCC(=O)N[C@H]1CC[C@H](NC(=O)c2cc(O)c3ccccc3n2)CC1 [compound 404, N-((1r,4r)-4-(3-aminopropanamido)cyclohexyl)-4-hydroxyquinoline-2-carboxamide]	–
> 100	N[C@H]1CC[C@H](NC(=O)c2cccnc2O)CC1 [compound 411, N-((1r,4r)-4-aminocyclohexyl)-2-hydroxynicotinamide]	–
9.9	CC1Oc2ccc(C(=O)N[C@H]3CC[C@H](NC(=O)CCN)CC3)cc2NC1=O (stereo partly drawn) [compound 451, N-((1r,4r)-4-(3-aminopropanamido)cyclohexyl)-2-methyl-3-oxo-3,4-dihydro-2H-benzo[b][1,4]oxazine-6-carboxamide]	–
> 100	N[C@H]1CC[C@H](NC(=O)CCCn2ccnc2)CC1 [compound 333, N-((1r,4r)-4-aminocyclohexyl)-4-(1H-imidazol-1-yl)butanamide]	–
> 100	Cn1ncnc1C(=O)N[C@H]1CC[C@H](N)CC1 [compound 507, N-((1r,4r)-4-aminocyclohexyl)-1-methyl-1H-1,2,4-triazole-5-carboxamide]	–
1.25	CN(C(=O)CN)C1CCC(NC(=O)c2ccc3c(c2)CC(=O)N3)CC1 (stereo not drawn) [compound 214, N-(4-(2-amino-N-methylacetamido)cyclohexyl)-2-oxoindoline-5-carboxamide]	–
> 100	Cn1nccc1C(=O)N[C@H]1CC[C@H](N)CC1 [compound 415, N-((1r,4r)-4-aminocyclohexyl)-1-methyl-1H-pyrazole-5-carboxamide]	–
> 100	CC(=O)Nc1ccc(C(=O)N[C@H]2CC[C@H](NC(=O)CCN)CC2)nc1 [compound 463, 5-acetamido-N-((1r,4r)-4-(3-aminopropanamido)cyclohexyl)picolinamide]	–
> 100	N[C@H]1CC[C@H](NC(=O)c2ccc3[nH]ccc3c2)CC1 [compound 192, N-((1r,4r)-4-aminocyclohexyl)-1H-indole-5-carboxamide]	–
> 100	Cc1ccncc1C(=O)N[C@H]1CC[C@H](NC(=O)CCN)CC1 [compound 381, N-((1r,4r)-4-(3-aminopropanamido)cyclohexyl)-4-methylnicotinamide]	–
> 100	N[C@H]1CC[C@H](NC(=O)c2ccc3c(c2)no[n+]3[O-])CC1 [compound 286, 5-(((1r,4r)-4-aminocyclohexyl)carbamoyl)benzo[c][1,2,5]oxadiazole 1-oxide]	–
28	COc1ccc2cc(C(=O)N[C@H]3CC[C@H](NC(=O)CCN)CC3)ccc2c1 [compound 326, N-((1r,4r)-4-(3-aminopropanamido)cyclohexyl)-6-methoxy-2-naphthamide]	–
> 50	N[C@H]1CC[C@H](NC(=O)c2cncc(O)c2)CC1 [compound 515, N-((1r,4r)-4-aminocyclohexyl)-5-hydroxynicotinamide]	–
> 100	CC1=NN(c2ccc(C(=O)N[C@H]3CC[C@H](N)CC3)cc2)C(=O)C1 [compound 403, N-((1r,4r)-4-aminocyclohexyl)-4-(3-methyl-5-oxo-4,5-dihydro-1H-pyrazol-1-yl)benzamide]	–
> 100	NCCC(=O)N[C@H]1CC[C@H](NC(=O)c2ccc(N)cn2)CC1 [compound 437, 5-amino-N-((1r,4r)-4-(3-aminopropanamido)cyclohexyl)picolinamide]	–
> 100	Cn1ccnc1C(=O)N[C@H]1CC[C@H](NC(=O)CCN)CC1 [compound 412, N-((1r,4r)-4-(3-aminopropanamido)cyclohexyl)-1-methyl-1H-imidazole-2-carboxamide]	–
> 100	NC1CCC(NC(=O)[C@H]2Cc3ccccc3CN2)CC1 (stereo partly drawn) [compound 459, (3R)-N-(4-aminocyclohexyl)-1,2,3,4-tetrahydroisoquinoline-3-carboxamide]	–

Reference: patent US10266526B2, “Substituted 1,2,3-triazoles as SMYD inhibitors for treating cancer” (EPIZYME, INC., priority 2014, dated 2019)
